Reference: patent US9955689B2, “Method for promoting plant growth” (SUMITOMO CHEMICAL COMPANY, LIMITED, priority 2012, dated 2018)

What follows are molecules tested on Nicotiana benthamiana (assay: Test Example 6: growth promotion under low-temperature stress by hydroponics of Nicotiana benthamiana (0.1 ppm)). Settings: compound at 0.1 ppm, 7 days at 1.5±1.0° C. low-temperature stress, then 3 days at 22° C., 5 or greater = growth promotion effect, read-out: value of a relative leaf area (Equation (1), area of green leaf).
Format: in vivo
Description: Test Example 6. Test for Evaluating Growth Promotion Under Low-Temperature Stress by Hydroponics of Nicotiana benthamiana
(§1) (Cultivation and Compound Treatment)
A DMSO solution, which contained one of the compounds 2, 3, 7, 11 to 13, 20, 23, 24, 30, 38, 39, 41 to 43, 46, 50, 64, 68, 80, 82, 88, 93, 94, 96, 104, 107, and 112 of the present invention at a concentration of […], was prepared. The DMSO solution of the compound of the present invention was added at a volume ratio of 1/1,000 to the Murashige⋅Scoog medium of a ½-fold concentration (a medium containing 2.3 g of mixed salts (manufactured by Wako Pure Chemical Industries, Ltd.), 200 mg of Myo-inositol (manufactured by Sigme-Aldrich Co. LLC.), 2 mg of niconitic acid (manufactured by Wako Pure Chemical Industries, Ltd.), 2 mg of pyridoxine hydrochloride (manufactured by Wako Pure Chemical Industries, Ltd.), 20 mg of thiamine hydrochloride (manufactured by Wako Pure Chemical Industries, Ltd.), 20 g of sucrose (manufactured by Wako Pure Chemical Industries, Ltd.), and 1 g of […] (manufactured by DOJINDO LABORATORIES) respectively per 1 L of water and having pH adjusted to 5.8), thereby preparing a medium containing the compound of the present invention at a concentration of 0.1 ppm.
(§2) Seeds of Nicotiana benthamiana were seeded in the 5 μL of the medium and cultured overnight at 22° C. Thereafter, 45 μL of the medium containing the compound of the present invention at a concentration of 0.1 ppm was added thereto, and the seeds are cultured for 7 days at 22° C. under the conditions of an illuminance of 4,000 lux, and a day length of 16 hours, and the seedlings raised from the Nicotiana benthamiana were treated with the compound. Moreover, instead of the above medium a test plot, which was obtained by performing the same treatment by using a medium prepared by adding DMSO to the Murashige′Scoog medium of ½-fold concentration at a volume ratio of 1/1,000, was used as a control plot not treated with the compound.
(§3) (Low-Temperature Stress Treatment)
(§4) The seedlings of the Nicotiana benthamiana treated with the compound were subjected to low-temperature treatment by being cultured for 7 days at 1.5±1.0° C., under the conditions of an illuminance of 2,000 lux, and a day length of 16 hours.
The seedlings of the Nicotiana benthamiana having undergone the low-temperature stress treatment were cultured for 3 days at 22° C., under the conditions of an illuminance of 4,000 lux, and a day length of 16 hours. Thereafter, the area of green leaf was quantified by Scanalyzer HTS (manufactured by LemnaTec GmbH). Moreover, the value of the control plot not treated with the compound that had not yet been subjected to the low-temperature stress treatment was measured in the same manner. A value of a relative leaf area was calculated based on the following equation (1), and if the relative value of leaf area was 5 or greater, the compound was evaluated to have a growth promotion effect. As a result of the evaluation, it was confirmed that when the plant was treated with one of the compounds 2, 3, 7, 11 to 13, 20, 23, 24, 30, 38, 39, 41 to 43, 46, 50, 64, 68, 80, 82, 88, 93, 94, 96, 104, 107, and 112 of the present invention at 0.1 ppm, the value of a relative leaf area was 5 or greater, compared to the area of green leaf of the control plot not treated with compound. Accordingly, it was confirmed that the treatment using the compound of the present invention improve a growth promotion effect. Relative leaf area=100*(a green area of a plot treated with the compound of the present invention minus(−) a green area of a plot not treated with the compound of the present invention)/(a green area of a control plot not treated with the compound of the present invention that had not yet been subjected to low-temperature stress treatment minus(−) green area of a control plot not treated with the compound of the present invention) Equation (1): […]

**Q.** `O=C(O)c1cc2cc(-c3ccc(Cl)cc3)ccc2s1` [Present compound 39, 5-(4-chlorophenyl)benzo[b]thiophene-2-carboxylic acid] was tested. Which relative green leaf area at 0.1 ppm did it give?
**A.** ≥ 5%

**Q.** How did the relative green leaf area at 0.1 ppm turn out when `O=C(O)c1cc2cc(C(F)(F)F)cc(Cl)c2s1` [Present compound 104, 7-chloro-5-trifluoromethylbenzo[b]thiophene-2-carboxylic acid] was run?
**A.** ≥ 5%

**Q.** Which relative green leaf area at 0.1 ppm does the source give for `O=C(O)c1sc2ccccc2c1O` [Present compound 80, 3-hydroxybenzo[b]thiophene-2-carboxylic acid] here?
**A.** ≥ 5%

**Q.** `Cc1cccc2cc(C(=O)O)sc12` [Present compound 23, 7-methylbenzo[b]thiophene-2-carboxylic acid] was tested. Which relative green leaf area at 0.1 ppm did it give?
**A.** ≥ 5%

**Q.** Which relative green leaf area at 0.1 ppm does the source give for `COc1ccc2sc(C(=O)O)cc2c1` [Present compound 82, 5-methoxybenzo[b]thiophene-2-carboxylic acid] here?
**A.** ≥ 5%

**Q.** With `Cc1c(C(=O)O)sc2ccccc12` [Present compound 24, 3-methylbenzo[b]thiophene-2-carboxylic acid] as the molecule, how does the relative green leaf area at 0.1 ppm read?
**A.** ≥ 5%

**Q.** For `O=C(O)c1cc2cc(-c3ccncc3)ccc2s1` [Present compound 46, 5-(4-pyridyl)benzo[b]thiophene-2-carboxylic acid], which relative green leaf area at 0.1 ppm is on record?
**A.** ≥ 5%

**Q.** For `Cc1ccccc1Oc1cccc2cc(C(=O)O)sc12` [Present compound 94, 7-(2-methylphenoxy)benzo[b]thiophene-2-carboxylic acid], which relative green leaf area at 0.1 ppm is on record?
**A.** ≥ 5%

**Q.** `O=C(O)c1cc2cccc(Oc3ccc(OC(F)(F)F)cc3)c2s1` [Present compound 96] was tested. Which relative green leaf area at 0.1 ppm did it give?
**A.** ≥ 5%

**Q.** How did the relative green leaf area at 0.1 ppm turn out when `COc1c(C(=O)O)sc2ccc(C(F)(F)F)cc12` [Present compound 112, 3-methoxy-5-trifluoromethylbenzo[b]thiophene-2-carboxylic acid] was run?
**A.** ≥ 5%

**Q.** For `C=Cc1ccc2cc(C(=O)O)sc2c1` [Present compound 30, 6-vinylbenzo[b]thiophene-2-carboxylic acid], which relative green leaf area at 0.1 ppm is on record?
**A.** ≥ 5%

**Q.** `O=C(O)c1cc2cc(-c3cccs3)ccc2s1` [Present compound 50, 5-(2-thienyl)benzo[b]thiophene-2-carboxylic acid] was tested. Which relative green leaf area at 0.1 ppm did it give?
**A.** ≥ 5%

These molecules were tested on Nicotiana benthamiana (assay: Test Example 5: growth promotion under low-temperature stress by hydroponics of Nicotiana benthamiana (1 ppm)). Settings: compound at 1 ppm, 7 days at 1.5±1.0° C. low-temperature stress, then 3 days at 22° C., 5 or greater = growth promotion effect, read-out: value of a relative leaf area (Equation (1), area of green leaf).
Format: in vivo
Description: Test Example 5. Test for Evaluating Growth Promotion Under Low-Temperature Stress by Hydroponics of Nicotiana benthamiana
as §1
A DMSO solution, which contained one of the compounds 9, 10, 15, 16, 27 to 29, 31 to 37, 40, 44, 47, 48, 52, 55, 56, 58, 61, 63, 81, 87, 89, 92, 95, 98, 100, 102, 105, 108, 109, 111, 113, and 115 of the present invention at a concentration of 1,000 ppm, was prepared. The DMSO solution of the compound of the present invention was added at a volume ratio of 1/1,000 to the Murashige-Scoog medium of a ½-fold concentration (a medium containing 2.3 g of mixed salts (manufactured by Wako Pure Chemical Industries, Ltd.), 200 mg of Myo-inositol (manufactured by Sigme-Aldrich Co. LLC.), 2 mg of niconitic acid (manufactured by Wako Pure Chemical. Industries, Ltd.), 2 mg of pyridoxine hydrochloride (manufactured by Wako Pure Chemical Industries, Ltd.), 20 mg of thiamine hydrochloride (manufactured by Wako Pure Chemical Industries, Ltd.), 20 g of sucrose (manufactured by Wako Pure Chemical Industries, Ltd.), and 1 g of MES (manufactured by DOJINDO LABORATORIES) respectively per 1 L of water and having pH adjusted to 5.8), thereby preparing a medium containing the compound of the present invention at a concentration of 1 ppm.
as §2, with “1” for “0.1”, “Murashige⋅Scoog” for “Murashige′Scoog”
as §3, §4
The seedlings of the Nicotiana benthamiana having undergone the low-temperature stress treatment were cultured for 3 days at 22° C. under the conditions of an illuminance of 4,000 lux, and a day length of 16 hours. Thereafter, the area of green leaf was quantified by Scanalyzer HTS (manufactured by LemnaTec GmbH). Moreover, the value of the control plot not treated with the compound that had not yet been subjected to the low-temperature stress treatment was measured in the same manner. A value of a relative leaf area was calculated based on the following equation (1), and if the relative value of leaf area was 5 or greater, the compound was evaluated to have a growth promotion effect. As a result of the evaluation, it was confirmed that when the plant was treated with one of the compounds 9, 10, 15, 16, 27 to 29, 31 to 37, 40, 44, 47, 48, 52, 55, 56, 58, 61, 63, 81, 87, 89, 92, 95, 98, 100, 102, 105, 108, 109, 111, 113, and 115 of the present invention at 1 ppm, the value of a relative leaf area was 5 or greater, compared to the area of green leaf of the control plot not treated with compound. Accordingly, it was confirmed that the treatment using the compound of the present invention improve a growth promotion effect. Relative leaf area=100*(a green area of a plot treated with the compound of the present invention minus(−) a green area of a plot not treated with the compound of the present invention)/(a green area of a control plot not treated with the compound of the present invention that had not yet been subjected to low-temperature stress treatment minus(−) a green area of a control plot not treated with the compound of the present invention) Equation (1): […]

**Q.** How did the relative leaf area at 1 ppm turn out when `O=C(O)c1sc2ccccc2c1C(=O)O` [Present compound 55, benzo[b]thiophene-2,3-dicarboxylic acid] was run?
**A.** ≥ 5%

These molecules were tested on Corn (Variety: Pioneer 31P41) (assay: Test Example 8: growth promotion under low-temperature stress by corn seed treatment). Settings: corn seed treatment: compound 21 0.5 g, compound 55 0.5 g, 5 g or 50 g per 100 kg corn seeds; 4 days at 2.5±1° C., then 4 days at 27° C.
Format: in vivo
Description: Test Example 8. Test for Evaluating Growth Promotion Under Low-Temperature Stress by Corn Seed Treatment
Corn (Variety: Pioneer 31P41 (Manufactured by Pioneer Hi-Bred Japan)
A blank slurry solution containing 10% (V/V) color coat red (Becker Underwood, Inc.), 10% (V/V) CF-Clear (Becker Underwood, Inc.), and 1.66% Maxim4FS (Syngenta) was prepared. The compound 21 of the present invention was dissolved in the blank slurry such that 0.5 g of the compound was used for treatment per 100 kg corn seeds, and the compound 55 of the present invention was dissolved in the blank slurry such that 0.5 g, 5 g or 50 g of the compound was used for treatment per 100 kg corn seeds respectively, thereby preparing a slurry solution.
Zero point three five (0.35) ml of the slurry solution per 14.4 g of the seeds was put into a 50 ml centrifugal settling tube (manufactured by Becton, Dickinson and Company, Japan), and the slurry solution was stirred until it dries, thereby coating the seeds. Moreover, the seeds coated with the blank slurry were used as seeds for an untreated control plot. […]
After low-temperature stress treatment was performed, the seeds were cultured for 4 days at 27° C., under the conditions of an illuminance of 5,000 lux, and a day length of 16 hours. Thereafter, a fresh weight of the aerial part in plant was measured, and an average weight of each individual was determined. […]

**Q.** `Cc1ccc2sc(C(=O)O)cc2c1` [Present compound 21] was tested. Which “fresh weight of the aerial part compared with the untreated control plot” value did it give?
**A.** larger

**Q.** For `O=C(O)c1sc2ccccc2c1C(=O)O` [Present compound 55, benzo[b]thiophene-2,3-dicarboxylic acid], which “fresh weight of the aerial part compared with the untreated control plot” value is on record?
**A.** larger
